Values quoted from earlier work as cited in patent publication US20110311589A1 (priority 2008, published 2011).

Test system: helminthiasis
Details: in vivo

c1ccc([C@H]2CN3CCSC3=N2)cc1 [Levamisole]
Dosages too low, ineffective in treating helminthiasis: less than 6 mg per kg of body weight
